# Test results published in a melting point compilation (Tetko et al.; mined from patent text by program, amines drawn as free bases though some values may be those of a salt).
row,SMILES,melting point
1,OC(CNC1=NCCN1)c1ccccc1 (stereo not drawn),147 to 149 °C
2,CCCOc1ccccc1-c1nc2nnc(N)nc2c(=O)[nH]1,322 to 325 °C
3,CC(=O)c1ccc(C2CC(C)(C)CC(C)(C)C2)c(Cl)c1,64 °C
4,CC(C)(C)CC(=O)N1CCN(c2ccc3ncc(Br)n3n2)CC1,170 to 171 °C
5,O=C1CC(c2ccccc2)Cc2c1ccn2Cc1ccccc1 (stereo not drawn),122 to 123 °C
6,Cc1cc(SC(=O)N(C)C)c(C(C)(C)C)cc1C=O,107 to 108 °C
7,O=[N+]([O-])c1cc(C(F)(F)F)c(Cl)c([N+](=O)[O-])c1NC1CC1,86 to 87 °C
8,CC(C)(C(=O)O)c1ccc2oc(-c3ccccc3)nc2c1,92 to 95 °C
9,O=C(Nc1ccc2[nH]nnc2c1)N1CCN(c2nc(-c3ccccc3)ns2)CC1,271 to 272 °C
10,O=C1[C@H]2C[C@H](F)CN2C(=O)N1c1cc(NS(=O)(=O)CCl)c(Cl)cc1F,147 to 151 °C
11,Cc1cc(Sc2ccc(O)c(C)c2)ccc1O,124 °C
12,C#CCn1cc(CO)c(C(F)(F)F)c1,45 °C
13,Cc1nc(Cl)c(C(=O)O)cc1Cl,123 to 138 °C
14,CCn1c(Oc2cccc(N3CCC(O)CC3)c2)nnc1[C@@H](C)NS(=O)(=O)c1ccc(Cl)c(Cl)c1,168 to 170 °C
15,N#Cc1cccc(S(=O)(=O)n2c(=O)[nH]c3cc(Cl)ccc3c2=O)c1,225 to 226 °C
16,NCCc1cc2c(-c3ccccc3)c(CC(=O)Nc3ccc(Cl)cc3C(F)(F)F)c(=O)oc2cc1Cl,165 to 167 °C
17,COc1ccc(C(C)(C)C)cc1NC(=O)Nc1ccc(-c2cnc3c(c2)NC(=O)CN3)c2ccccc12,> 230 °C
18,Cc1cccc(-c2n[nH]cc2-c2ccc(F)c(-c3ccc(S(=O)(=O)C(F)F)cc3)c2)n1,80 to 82 °C
19,O=C(Nc1ccc(Oc2ccnc(NCCN3CCCC3)n2)c2ccccc12)c1cc(F)cc(N2CCOCC2)c1,95 to 97 °C
20,CCCCCCN(Cc1ccc(-c2ccccc2-c2nnn[nH]2)cc1)c1ncc(C(=O)O)s1,113 to 117 °C
21,CCCCCCc1cc2c(cc1S)C(=O)CC2,100 °C
22,CCOC(=O)C(=CN(C)C)C(=O)c1ccc(Br)cc1Cl,100 to 101 °C
23,CC(C#N)(NC(=O)c1c(Cl)cccc1Cl)c1ncc(C(F)(F)F)cc1Cl (stereo not drawn),166 to 167 °C
24,CCOC(=O)C(=CNc1ncnc2ccc(NS(C)(=O)=O)cc12)C(=O)OCC,200 to 202 °C
25,CC(C)(C)c1cc(C(=NN)c2ccccc2)cc(C(C)(C)C)c1O,97.4 to 117 °C

row,SMILES,melting point
1,CC(=O)C1=C(C)CC2C3CCC4CC5OC5CC4(C)C3C(=O)CC12C (stereo not drawn),155 to 157 °C
2,O=C(O)c1ccc(S(=O)(=O)NCCSC2c3ccccc3COc3ccc(OCc4ccc5ccccc5n4)cc32)cc1 (stereo not drawn),113 to 115 °C
3,CCOP(=O)(CNCc1ccnc(-c2cc(OC)c(O)c(OC)c2)c1)OCC,124 to 126 °C
4,CC(=O)N1CCc2c([nH]c3ccccc23)C1CCCCl (stereo not drawn),166 to 168 °C
5,COc1ccc2c(=O)c3[nH]c(C(=O)O)cc(=O)c3oc2c1,253 to 254 °C
6,O=C1C2=NCCCN2c2cccc(Cl)c21,170 °C
7,C[C@H](O)[C@H](CNC(=O)c1ccccc1)C(=O)O,99 to 101 °C
8,Cn1nccc1-c1ccc2c(ccn2-c2ccc(F)cc2)c1,135 to 137 °C
9,CCOC(=O)C(OCc1ccc(-c2ccc(Cl)cc2)cc1)(C(F)(F)F)C(F)(F)F,62 to 62.5 °C
10,COc1ccc(C2(CCN3CCC(C(=O)c4nc5ccccc5[nH]4)CC3)CCN(C(=O)c3cc(OC)c(OC)c(OC)c3)C2)cc1OC (stereo not drawn),113 to 116 °C
11,CC1(C)OC(=O)C(Oc2ccc3sccc3c2)=C1c1ccc(S(C)(=O)=O)cc1,150 to 152 °C
12,C=CCn1c(-c2cccnc2)nn(CN2CCN(c3cccc4c3OCCO4)CC2)c1=S,122 to 127 °C
13,O=[N+]([O-])c1cc(C(O)CCN2CCC(c3ccccc3)CC2)ccc1C1CCCCC1 (stereo not drawn),148 to 150 °C
14,Cc1cc2oc(=O)c3c(c2cc1C)CCNC3,173 to 175 °C
15,CCCc1ccnc2c(=O)[nH]c(-c3cc(S(=O)(=O)NCCN4CCNC4=O)ccc3OCC)nc12,221 to 222 °C
16,c1cc2c3c(c1)Cc1c(ccc4c1OCO4)C3CNC2 (stereo not drawn),175 to 176 °C
17,CC(O)C(=O)N[C@H](C(=O)NC(Cc1ccccc1)C(O)CNCC(O)C(Cc1ccccc1)NC(=O)OC(C)(C)C)C(C)C (stereo partly drawn),210 to 214 °C
18,O=C1NC(=O)C(c2ccco2)N1 (stereo not drawn),145 to 146 °C
19,O=C1N=C(N2CCOCC2)SC1c1cccc(-c2ccc(O)c(-c3ccccc3)c2)n1 (stereo not drawn),292 to 295 °C
20,CCOP(=O)(/C=C/c1cn(-c2ccccc2)nc1OCc1ccc(OCc2nc(-c3ccc(OC)c(C(=O)OC)c3)oc2C)c(OC)c1)OCC,144 to 145 °C
21,O=C(c1ccc(Nc2ccnc3cc(C(F)(F)F)ccc23)cc1)N1CCN(c2ncccn2)CC1,246 to 248 °C
22,COC(=O)c1c2cc(I)ccc2nc2ccc(I)cc12,201 to 203 °C
23,CCOC(=O)c1ccc(C(=O)/C=C/c2ccc(SC)cc2)cc1,115 to 116 °C
24,Cc1cc(C)cc(Sc2cccc([N+](=O)[O-])c2C#N)c1,155 to 156 °C
25,Clc1ccccc1-c1cc[nH]n1,93 °C

row,SMILES,melting point
1,CN1CCC(=C2c3ccc(Cl)cc3CCc3cccnc32)CC1,116 to 119 °C
2,CCC(CC)Oc1cc(C)nc2c1n(C)c(=O)n2-c1c(C)cc(C)cc1C,151 to 153 °C
3,O=C(O)C1=CCCN1C(=O)CCSSCCC(=O)N1CCC=C1C(=O)O,158 to 160 °C
4,O=C1NN(c2ccc(Cl)cc2)C(=O)C1=CNc1ccccc1,288 to 290 °C
5,CCNC(=O)c1c(C2CC2)nc(CC)n1Cc1ccc2oc(-c3ccccc3NS(=O)(=O)C(F)(F)F)cc2c1,165 to 172 °C
6,Cc1ncnn1-c1ccccc1C#N,119 to 120 °C
7,CN1C(=O)C(c2ccc(OC(F)F)cc2)(c2cccc(C(F)CCCF)c2)N=C1N (stereo not drawn),54 to 57 °C
8,Cc1noc(NS(=O)(=O)c2ccc(NC(=O)NC3CCCCC3)cc2)c1C,190 to 195 °C
9,FC(F)(F)c1ccc2nc(N3CCN(c4ccncc4C(F)(F)F)CC3)[nH]c2c1,220 to 224 °C
10,CSc1nc(SC)nc(-c2cc(C(C)(C)C)c(O)c(C(C)(C)C)c2)n1,94 °C
11,Cc1nc(C2CCCCC2)c2nc(-c3ccccc3)cc-2[nH]1,> 280 °C
12,CC(C)=CCCC(C)=CCOc1ccc(C(=O)NCCc2ccccn2)cc1,67 to 69 °C
13,COCOc1c(-c2ccccc2)sc2ncccc12,54 °C
14,COc1cccc2c1N(S(=O)(=O)c1ccc(-c3ccc(F)cc3F)cc1)C(C(=O)NCCOc1ccc(C(=O)O)cc1)C2 (stereo not drawn),234 °C
15,O=C(O)CNC(=O)[C@H]1CC[C@H](C(=O)N2CCN(C3CCNCC3)CC2)CC1,260 to 270 °C
16,CNC(=O)c1cc(C(=O)O)cc(C(=O)NC)n1,< 300 °C
17,CC(C)Cc1ccc(CCc2cc3c(s2)NC(=O)CN=C3c2ccccc2Cl)cc1,179 to 181 °C
18,COc1cc(NCCN(Cc2ccccc2)Cc2ccccc2)ccc1C(N)=O,136 to 138 °C
19,Cc1ccccc1C(=O)Nc1ccc(C(=O)N2CCc3cn(C)nc3-c3ccccc32)cc1,246 to 248 °C
20,CC(=O)NCCOc1ccc([N+](=O)[O-])cc1O,165 °C
21,CC(=O)c1ccc(N2Cc3ccccc3C2=O)cc1,235 to 237 °C
22,CC#CCOc1ccc(S(=O)(=O)C(CCCCCC#N)C(=O)OCC)cc1 (stereo not drawn),63 °C
23,CC(=O)OCc1ccc(-c2ccc(COC(C)=O)cc2)cc1,86 to 87 °C
24,COC(=O)[C@]1(OS(C)(=O)=O)C[C@H](CC(C)C)[C@@H](O)[C@H](O)C1,122 to 123 °C
25,CC(=O)OCC1OC(n2c(=O)sc3c(Cl)nc(N)nc32)C(OC(C)=O)C1OC(C)=O (stereo not drawn),101 to 103 °C

row,SMILES,melting point
1,CC1(C)C(=O)N(c2ccc(C#N)c(C(F)(F)F)c2)C(=O)N1CCCCCl,80 to 81 °C
2,C=CC(=O)O[C@H]1CC[C@H](c2ccccc2)CC1,67.3 °C
3,O=c1c2ccccc2[nH]n1CSc1ccccc1,167 to 168 °C
4,CNc1cc(Cc2cnc(N)nc2N)cc(N(C)C)c1OC,183 °C
5,COP(=O)(Nc1ccc(N)cc1)OC,125 °C
6,COc1ccc(C(=O)c2c(-c3ccc(OC)cc3)oc3cc(OC)ccc23)cc1,106 to 109 °C
7,COc1ccc(-c2sc3c(c2CN(C)Cc2ccccc2)c(=O)c(C=O)cn3Cc2ccccc2OC)cc1,181 to 185 °C
8,CCOC(=O)Nc1nc(C)c(-c2nc3ccccc3c(=O)n2-c2ccc(Cl)cc2)s1,> 275 °C
9,O=C(OCCc1ccc([N+](=O)[O-])cc1)C1Cc2c(ccc3[nH]ccc23)N1 (stereo not drawn),192 to 194 °C
10,Cc1ccc2ccc3ccccc3c(=O)c2c1,81 to 83 °C
11,CCCCCOc1ccc(C2SC(=O)NC2=O)cc1OCC (stereo not drawn),104 to 106 °C
12,CC1CC(=O)NN=C1c1ccc2c(c1)NCC(c1ccccc1)N2 (stereo not drawn),209 to 215 °C
13,CN(C)C=C1Cc2cc(Cl)ccc2C1=O,148 to 150 °C
14,CS(=O)(=O)c1ccc(N2C[C@H](COc3ccon3)OC2=O)cc1,180 °C
15,Cc1ccc(N=CN(C)C=Nc2ccccn2)c(C)c1,100 °C
16,N#Cc1c(N2CCN(C(=O)c3cccs3)CC2)c2cccnc2n(Cc2ccccc2F)c1=O,286 °C
17,N=C(N)NCCC[C@H](NC(=O)c1ccccc1SSc1ccccc1C(=O)N[C@@H](CCCNC(=N)N)C(=O)O)C(=O)O,208 to 211 °C
18,O=C1NCCc2c(CCc3ccccc3)[nH]c3cccc1c23,207 to 208 °C
19,CCCN1OCC(=Cc2cc(C(C)(C)C)c(O)c(C(C)(C)C)c2)C1=O,194 to 196 °C
20,Cc1c(NC(=O)c2ccc(-c3ccc(Cl)cc3)nc2)ccc2cc(CN3CCCC3)cnc12,234 to 236 °C
21,CC(C)(C)c1cc(CN)c(O)c(I)n1,162 to 165 °C
22,Cc1c(OCc2ccc([Si](C)(C)C)cc2)cnn(C(C)(C)C)c1=O,93.5 to 95.5 °C
23,COc1ccc(C(=O)N2CCc3cc(S(=O)(=O)N4CC(c5ccccc5)NC4=O)ccc32)cc1OC (stereo not drawn),178 to 179 °C
